{"source": "patent US11357774B2", "about": "“Use of a quinoline sulfonyl compound for treatment of inflammation, inflammatory disorders, autoimmune disorders and malaria” (priority 2019, dated 2022)", "key": {"THP-1 cells": {"test_system": "THP-1 cells", "assay": "CCK-8 cell viability, THP-1 cells", "format": "cell-based", "conditions": "THP-1, 6 hours with LPS 5 μg/mL or TNF-α 10 ng/mL; VR23 3 μM, BTZ 6 nM, CFZ 1 nM, DEX 2 μM", "description": "Dunnett's test was performed to assess if there are significant differences in cell viability compared to the non-treatment control group. The values presented are mean±SEM (n=3).\nThe CCK-8 assay was used to count viable cells under the various treatment conditions. Briefly, cells were cultured in 11 columns of a 96-well clustered plate, with 5,000 cells in 100 μL of culture medium per well, excluding one column for a media-only control. The plate was incubated overnight at 37° C. in the humidified conditions, followed by treatment with test compounds diluted in the culture medium (10 μL). Each column was treated with a different condition so that each treatment could have 8 repeats. […] The absorbance was measured using an automatic plate reader (Synergy H4 Hybrid Multi-Mode Microplate Reader, BioTek, Montreal, Canada) at 450 nm wavelength. The cell viability of each treatment sample was determined by using the following equation (%)=(Abstrtmt-Absmedia)/(AbsuT-Absmedia)*100, where Abstrtmt is the absorbance value of cells with the various treatment conditions; Absmedia is the absorbance of the well containing media only; AbsuT is the absorbance of the wells with untreated cells. […]"}, "HFLS-RA cell migration": {"test_system": "HFLS-RA cell migration", "assay": "Cell migration assay (matrigel invasion chamber), HFLS-RA", "format": "cell-based, human", "conditions": "24 hours, 5 μM or 10 μM", "description": "The values presented are the mean±SEM (n=2).\nCell migration assays were performed with Corning invasion chambers with Matrigel matrix (Fisher Scientific). The lower chamber contained compounds (e.g., VR23 or HCQ) and FBS as a chemo-attractant. The upper chamber was loaded with cells in FBS-free medium. The analysis of the trans-well inserts were carried out as described previously^24. After 24 hours of incubation, the trans-well inserts were removed, and then the remaining media and cells on the upper chamber were also removed from the top of the membrane with a cotton swab. The trans-well inserts were placed into wells containing 1 mL of 70% ethanol for 10 minutes to fix the cells. The residual ethanol was carefully removed with a cotton swab. Cells on the trans-well insert membrane were then air-dried at room temperature for 15 minutes. The trans-well insert containing cells were placed in 1 mL of 0.2% crystal violet for 10 minutes to stain. The excessive crystal violet was carefully removed from the membrane with a cotton swab. Subsequently, cells on the trans-well membrane were air-dried at room temperature prior to analysis under an inverted microscope. Images (10×) were captured at 5 different fields. The average number of cells that migrated through the membrane towards the chemo-attractant were determined. […]"}, "[1]": {"test_system": "IL-1β, TNF-α, IL-6 and IL-8 secretion in THP-1 cells", "assay": "Cytokine secretion in LPS-stimulated THP-1 cells (ELISA)", "format": "cell-based, human", "conditions": "THP-1, LPS 5 μg/mL, 6 hours", "description": "For comparison, BTZ (6 nM), CFZ (1 nM), and DEX (2 μM) were also included. *, **, and *** are p<0.05, p<0.01, and p<0.001, respectively, which denote a significant difference from the LPS-only group. The mean±SEM (n=3) values were determined by a Dunnett's test.\nThe enzyme-linked immunosorbent assay (ELISA) is a quantitative measurement based on sandwich-based enzyme linking, using a protein-specific capture antibody to determine the levels of single or multiple chemokines and cytokines.\nData shown in FIG. 11 are the results of experiments carried out to investigate VR23's effect on the levels of inflammatory cytokines. […] For comparison, BTZ (6 nM), CFZ (1 nM) and DEX (2 μM) were also included. The levels of cytokine secreted in cell culture supernatants were measured by a single-analyte ELISA. The IC50 value of VR23 is 3 μM and the concentrations of BTZ, CFZ and DEX used are their respective IC50 values."}}, "data": [{"smiles": "O=[N+]([O-])c1ccc(S(=O)(=O)N2CCN(c3ccnc4cc(Cl)ccc34)CC2)c([N+](=O)[O-])c1", "note": "[VR23, 7-chloro-4-(4-(2,4-dinitrophenylsulfonyl)piperazin-1-yl)quinoline]", "values": [{"measurement": "cell viability (CCK-8)", "setting": "THP-1 cells", "result": "did not significantly differ from the untreated cells"}, {"measurement": "cell migration promoted by 10% FBS", "setting": "HFLS-RA cell migration", "result": "completely prevents cell migration"}, {"measurement": "level of IL-6 in response to LPS", "setting": "[1]", "result": "especially effective on reducing the level of IL-6"}, {"measurement": "cytokine secretion, dose dependence", "setting": "[1]; VR23 0.5, 1.0, 2, 3, 4 or 6 μM", "result": "decreased cytokine secretion in a dose dependent manner"}, {"measurement": "levels of inflammatory cytokines IL-1β, TNF-α, IL-6, IL-8", "setting": "[1]; VR23 0.5-6 μM, BTZ 6 nM, CFZ 1 nM, DEX 2 μM", "result": "substantial and comparable anti-inflammatory activities"}]}]}
